Experiments:
[1] = Microsomal stability in mouse liver microsomes assessed as intrinsic clearance at 1 uM incubated for 60 mins in presence of NADPH regenerating system by LC-MS/MS analysis; assay type: ADME, Microsome; conditions: read-out: CLH
Cytochrome P450 2C8 = target: T1, Cytochrome P450 2C8 (Homo sapiens, UniProt P10632); assay: Inhibition of CYP2C8 in human liver microsomes incubated in presence NADPH by LC-MS/MS analysis
T1 sequence (P10632 whole entry): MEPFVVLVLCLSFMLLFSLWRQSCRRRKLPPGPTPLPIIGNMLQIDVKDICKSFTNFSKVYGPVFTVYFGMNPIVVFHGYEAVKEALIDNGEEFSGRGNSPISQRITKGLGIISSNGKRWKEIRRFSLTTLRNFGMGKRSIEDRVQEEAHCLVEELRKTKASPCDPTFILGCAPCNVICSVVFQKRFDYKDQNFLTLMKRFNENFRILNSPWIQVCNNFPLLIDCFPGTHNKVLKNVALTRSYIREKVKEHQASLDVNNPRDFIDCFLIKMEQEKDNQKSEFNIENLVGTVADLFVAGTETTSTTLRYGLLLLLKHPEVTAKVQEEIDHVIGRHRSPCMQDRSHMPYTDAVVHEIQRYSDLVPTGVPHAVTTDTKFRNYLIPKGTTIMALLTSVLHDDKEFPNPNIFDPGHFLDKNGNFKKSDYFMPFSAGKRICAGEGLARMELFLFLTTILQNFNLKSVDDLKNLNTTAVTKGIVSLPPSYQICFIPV

Cytochrome P450 1A2 = target: T2, Cytochrome P450 1A2 (Homo sapiens, UniProt P05177); assay: Inhibition of CYP1A2 in human liver microsomes incubated in presence NADPH by LC-MS/MS analysis
T2 sequence (P05177 whole entry): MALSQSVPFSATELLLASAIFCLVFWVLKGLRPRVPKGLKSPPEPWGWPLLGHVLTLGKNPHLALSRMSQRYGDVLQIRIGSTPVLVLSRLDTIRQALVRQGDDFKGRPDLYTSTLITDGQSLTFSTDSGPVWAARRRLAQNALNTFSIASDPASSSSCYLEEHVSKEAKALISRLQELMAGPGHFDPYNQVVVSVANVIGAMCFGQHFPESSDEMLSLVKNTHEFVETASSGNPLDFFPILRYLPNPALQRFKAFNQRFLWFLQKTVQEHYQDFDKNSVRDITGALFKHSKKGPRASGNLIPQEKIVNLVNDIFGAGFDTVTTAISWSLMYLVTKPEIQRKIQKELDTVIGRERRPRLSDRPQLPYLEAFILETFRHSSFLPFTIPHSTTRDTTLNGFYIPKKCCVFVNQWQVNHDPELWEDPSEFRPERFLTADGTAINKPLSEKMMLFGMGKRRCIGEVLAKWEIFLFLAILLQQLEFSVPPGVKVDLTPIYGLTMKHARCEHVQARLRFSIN

[2] = Metabolic stability in mouse hepatocytes assessed as intrinsic clearance at 1 uM incubated for 90 mins by LC/MS/MS analysis; assay type: ADME, cell-based, Hepatocyte
Cytochrome P450 3A4 = Cytochrome P450 3A4 (Homo sapiens, UniProt P08684); assay: Inhibition of CYP3A4 in human liver microsomes incubated in presence NADPH by LC-MS/MS analysis
[3] = Metabolic stability in human hepatocytes assessed as intrinsic clearance at 1 uM incubated for 90 mins by LC/MS/MS analysis; assay type: ADME, cell-based, Hepatocyte
Cytochrome P450 2C9 = Cytochrome P450 2C9 (Homo sapiens, UniProt P11712); assay: Inhibition of CYP2C9 in human liver microsomes incubated in presence NADPH by LC-MS/MS analysis
Cytochrome P450 2B6 = target: T3, Cytochrome P450 2B6 (Homo sapiens, UniProt P20813); assay: Inhibition of CYP2B6 in human liver microsomes incubated in presence NADPH by LC-MS/MS analysis
T3 sequence (P20813 whole entry): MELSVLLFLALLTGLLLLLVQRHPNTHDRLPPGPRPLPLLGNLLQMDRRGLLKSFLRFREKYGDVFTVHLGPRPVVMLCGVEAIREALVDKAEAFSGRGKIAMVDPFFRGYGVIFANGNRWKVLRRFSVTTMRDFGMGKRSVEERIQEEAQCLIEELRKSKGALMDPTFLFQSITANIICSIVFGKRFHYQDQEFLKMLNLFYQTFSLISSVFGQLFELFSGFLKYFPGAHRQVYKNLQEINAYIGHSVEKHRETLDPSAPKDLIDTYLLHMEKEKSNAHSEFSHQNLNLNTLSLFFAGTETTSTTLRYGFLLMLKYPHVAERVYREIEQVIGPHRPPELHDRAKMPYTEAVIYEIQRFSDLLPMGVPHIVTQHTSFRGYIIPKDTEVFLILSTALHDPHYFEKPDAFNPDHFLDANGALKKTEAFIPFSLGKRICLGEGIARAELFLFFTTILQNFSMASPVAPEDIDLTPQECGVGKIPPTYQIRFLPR

[4] = Metabolic stability in rat hepatocytes assessed as intrinsic clearance at 1 uM incubated for 90 mins by LC/MS/MS analysis; assay type: ADME, cell-based, Hepatocyte
Homo sapiens = species on record: Homo sapiens; assay: Selectivity index, ratio of IC50 for inhibition of recombinant human JAK2 to IC50 for inhibition of recombinant human JAK1
[5] = target: Tyrosine-protein kinase JAK1 (Homo sapiens, UniProt P23458); assay: Inhibition of recombinant human JAK1 using MGEEPLYWSFPAKKK as substrate incubated for 40 mins in presence of Mg/ATP mixture by [gamma p33]-ATP based scintillation counting method
[6] = Efflux ratio of apparent permeability from basolateral to apical side over apical to basolateral side in human Caco-2 cells at 10 uM incubated for 120 mins by LC-MS/MS analysis
[7] = Microsomal stability in rat liver microsomes assessed as intrinsic clearance at 1 uM incubated for 60 mins in presence of NADPH regenerating system by LC-MS/MS analysis; assay type: ADME, Microsome; conditions: read-out: CLH
[8] = Plasma protein binding in mouse assessed as unbound fraction at 2 uM incubated for 4 hrs by LC/MS/MS based balanced dialysis method
[9] = Volume of distribution at steady state in C57BL/6 mouse at 15 mg/kg, po or 2 mg/kg, iv measured for 24 hrs by LC/MS/MS analysis; assay type: ADME, organism-based; conditions: in vivo

Cytochrome P450 2C9, sequence (P11712 whole entry): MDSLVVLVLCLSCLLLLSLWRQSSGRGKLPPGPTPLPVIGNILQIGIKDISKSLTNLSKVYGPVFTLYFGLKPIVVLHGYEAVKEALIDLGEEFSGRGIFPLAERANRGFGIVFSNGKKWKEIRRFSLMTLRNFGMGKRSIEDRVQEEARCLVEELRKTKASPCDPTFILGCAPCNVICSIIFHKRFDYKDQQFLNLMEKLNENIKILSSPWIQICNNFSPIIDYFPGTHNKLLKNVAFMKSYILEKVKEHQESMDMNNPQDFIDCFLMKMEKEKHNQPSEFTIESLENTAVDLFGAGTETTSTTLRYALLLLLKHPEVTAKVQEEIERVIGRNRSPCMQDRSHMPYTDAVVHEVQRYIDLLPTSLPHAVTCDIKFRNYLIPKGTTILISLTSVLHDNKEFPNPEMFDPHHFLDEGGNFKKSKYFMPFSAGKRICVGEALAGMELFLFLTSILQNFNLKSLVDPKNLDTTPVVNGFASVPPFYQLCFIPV
Tyrosine-protein kinase JAK1, sequence (P23458 whole entry): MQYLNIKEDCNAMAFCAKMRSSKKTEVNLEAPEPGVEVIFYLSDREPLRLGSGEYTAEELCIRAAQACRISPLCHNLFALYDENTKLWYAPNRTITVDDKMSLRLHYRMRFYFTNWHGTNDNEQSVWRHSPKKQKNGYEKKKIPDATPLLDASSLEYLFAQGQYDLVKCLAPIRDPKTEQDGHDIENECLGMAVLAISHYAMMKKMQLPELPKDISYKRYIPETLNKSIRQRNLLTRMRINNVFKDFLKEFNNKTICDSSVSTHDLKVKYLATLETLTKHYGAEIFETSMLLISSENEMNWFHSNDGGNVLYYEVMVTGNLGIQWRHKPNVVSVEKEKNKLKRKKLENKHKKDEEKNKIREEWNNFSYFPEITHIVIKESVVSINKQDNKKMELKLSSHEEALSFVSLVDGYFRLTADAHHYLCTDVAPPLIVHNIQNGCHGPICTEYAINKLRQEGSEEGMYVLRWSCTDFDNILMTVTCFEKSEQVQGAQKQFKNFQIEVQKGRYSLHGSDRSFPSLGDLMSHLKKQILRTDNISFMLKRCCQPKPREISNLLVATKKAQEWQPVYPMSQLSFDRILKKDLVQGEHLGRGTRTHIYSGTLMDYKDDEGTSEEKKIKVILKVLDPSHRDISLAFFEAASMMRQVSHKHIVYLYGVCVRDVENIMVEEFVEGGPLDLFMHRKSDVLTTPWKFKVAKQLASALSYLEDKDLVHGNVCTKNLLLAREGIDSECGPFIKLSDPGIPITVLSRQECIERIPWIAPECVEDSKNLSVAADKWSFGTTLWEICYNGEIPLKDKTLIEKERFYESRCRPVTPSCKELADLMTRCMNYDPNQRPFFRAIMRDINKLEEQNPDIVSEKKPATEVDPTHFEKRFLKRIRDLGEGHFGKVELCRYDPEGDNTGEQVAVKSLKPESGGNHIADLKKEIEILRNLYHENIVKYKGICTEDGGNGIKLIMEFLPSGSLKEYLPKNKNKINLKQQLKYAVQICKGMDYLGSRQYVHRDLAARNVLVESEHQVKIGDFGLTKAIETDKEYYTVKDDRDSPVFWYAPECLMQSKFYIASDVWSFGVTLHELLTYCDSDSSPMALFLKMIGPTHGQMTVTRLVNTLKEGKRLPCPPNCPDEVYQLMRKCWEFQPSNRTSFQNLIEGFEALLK
Cytochrome P450 3A4, sequence (P08684 whole entry): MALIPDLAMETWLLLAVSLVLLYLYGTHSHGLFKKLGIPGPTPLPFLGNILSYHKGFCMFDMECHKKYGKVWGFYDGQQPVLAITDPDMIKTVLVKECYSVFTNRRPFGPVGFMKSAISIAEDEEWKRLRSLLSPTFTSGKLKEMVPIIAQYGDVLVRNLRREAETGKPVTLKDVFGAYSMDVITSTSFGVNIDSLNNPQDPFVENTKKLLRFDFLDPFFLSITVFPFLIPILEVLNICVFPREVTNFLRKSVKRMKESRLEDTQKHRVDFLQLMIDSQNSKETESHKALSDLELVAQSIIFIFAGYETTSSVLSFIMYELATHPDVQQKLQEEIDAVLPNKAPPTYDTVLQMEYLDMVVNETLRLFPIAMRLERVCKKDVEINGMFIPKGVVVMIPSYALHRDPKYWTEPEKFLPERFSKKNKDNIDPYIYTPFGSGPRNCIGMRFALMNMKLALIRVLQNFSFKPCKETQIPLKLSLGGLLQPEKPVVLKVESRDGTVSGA

Compound | microsomal CLint at 1 µM [1] [µL/min/mg] | IC50 (Cytochrome P450 2C8) [µM] | IC50 (Cytochrome P450 1A2) [µM] | CLH [2] [µL/min/mg] | IC50 (Cytochrome P450 3A4) [µM] | CLH [3] [µL/min/mg] | IC50 (Cytochrome P450 2C9) [µM] | IC50 (Cytochrome P450 2B6) [µM] | CLH [4] [µL/min/mg] | Ratio IC50 (Homo sapiens) | IC50 [5] [µM] | efflux ratio at 2 h, 10 µM [6] | microsomal CLint at 1 µM [7] [µL/min/mg] | fraction unbound at 4 h, 2 µM [8] | Vdss [9] [L/kg]
O=C(Nc1nc2cccc(C3CCC4(CC3)CCN(C(=O)[C@@H]3CC3(F)F)C4)n2n1)C1CC1 (stereo partly specified) | 46.5 | > 100 | > 100 | 134.3 | > 100 | < 6.4 | 49 | > 100 | 25.6 | 10.5 | 0.031 | 19.5 | 15.7 | 0.112 | –
O=C(Nc1nc2cccc(C3CCC4(CC3)CN(C(=O)[C@@H]3CC3(F)F)C4)n2n1)C1CC1 | < 9.6 | – | – | 9.1 | – | < 6.4 | – | – | < 6.4 | – | – | – | < 9.6 | 0.259 | 1.61
O=C(Nc1nc2cccc(C3CCC4(CC3)CCN(C(=O)[C@@H]3CC3(F)F)CC4)n2n1)C1CC1 | 20.8 | > 100 | > 100 | 40.6 | > 100 | < 6.4 | 46.8 | > 100 | < 6.4 | 13.3 | 0.003 | 6.77 | < 9.6 | 0.057 | 0.942
O=C(Nc1nc2cccc([C@H]3CC[C@@H](NC(=O)[C@@H]4CC4(F)F)CC3)n2n1)C1CC1 | 24.2 | > 100 | 8.21 | 34.2 | > 100 | < 6.4 | > 100 | > 100 | < 10.8 | 11 | 0.002 | 10.5 | 16.9 | 0.148 | 0.501

Source: ChEMBL document CHEMBL5150077, “Identification of TUL01101: A Novel Potent and Selective JAK1 Inhibitor for the Treatment of Rheumatoid Arthritis” (J Med Chem, 2022)
